Test results as given in US9593149B2, “Amylin and calcitonin receptor agonist” (Novo Nordisk A/S, priority 2014, dated 2017).
Peptide text beside a SMILES is read from it. * marks the point of attachment. C16 diacid = O=C(O)CCCCCCCCCCCCCCC(=O)*; C14 diacid = O=C(O)CCCCCCCCCCCCC(=O)*

Columns and labels:
[1] = Assay (X) pK, T½ in rat; type: in vivo, Sprague Dawley rats; conditions: for PK rat iv T½: i.v.; for PK rat sc T½: s.c.
Method: Assay (X)—pK—Determination of T½ in Rat
Pharmacokinetic (PK) studies rats were conducted in order to determine the T½ of mimylin peptide after i.v. and s.c. administration.
T½ values of the mimylin derivates of the invention is determined by pharmacokinetic studies in Sprague Dawley male rats, from Taconic Europe and the principles of laboratory animal care are followed.
An acclimatisation period of approximately 7 days was allowed before the animals entered the study. At start of the acclimatisation period the rats were in the weight range of 250-400 g.
The studies were conducted in an animal room which was illuminated to give a cycle of approximately 12 hours light and 12 hours darkness. The animals were group housed and had food and water ad lib. The animals were weighed on the days of dosing.
In the present studies the test substances were administered subcutaneously or intravenously in approximately 20 nmol/kg dose. The animals received a single subcutaneous injection to the neck for subtaneous administration or directly into the tail vein for intravenous administration. Each test substance was given to typically three but in some cases two or four animals.
A full plasma concentration-time profile, employing 8-10 sampling points, was obtained from each animal. In example blood samples were collected according to the following schedule: After subcutaneous or intravenous administration:
At each sampling time, 0.08 to 0.10 ml of blood was drawn from each animal. The blood samples were taken in the sublingual vein via venous puncture and the use of a capillary tube.
The blood samples were stabilised with EDTA. Blood samples were kept on ice for max 20 min. before centrifugation. Plasma was separated using centrifugation (i.e. at 4° C., 10 min., 1500G) and was immediately transferred to Micronic tubes or PCR plates. Approximately 40 μl plasma was transferred and was stored at −20° C. until assayed. The plasma samples were assayed for the content of mimylin compound by LCMS
The plasma concentration-time profiles were analysed by a non-compartmental pharmacokinetic analysis (NCA) using Phoenix WinNonlin 6.3 (Pharsight Inc., Mountain View, Calif., USA). NCA was performed using the individual plasma concentration-time profiles from each animal. T½ is the terminal half-life=In2/λz and was determined from λz, the first order rate constant associated with the terminal (log-linear) portion of the curve, estimated by linear regression of time vs. log concentration.

[2] = Assay (IX) pK, T½ in mini-pig; type: in vivo, Göttingen mini-pigs; conditions: i.v.
Summary of the method: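 Female Göttingen mini-pigs (5–12 months, 15–35 kg, fed freely) received a single i.v. dose of approximately 5 nmol/kg via central venous catheter, typically n=3. Plasma was sampled from pre-dose to 240 h (sometimes 288 h) and quantified by LC-MS. T½ was derived by non-compartmental analysis from the terminal log-linear slope (ln2/λz).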

[3] = Assay (IV) determination of solubility; type: physicochemical
Method: Assay (IV)—Determination of Solubility
The mimylin peptide was dissolved in water at ˜500 nmol/ml and mixed 1:1 with a series of buffers (100 mM glycylglycine pH 3.0, 100 mM glycylglycine pH 4.0, 100 mM glycylglycine pH 5.0, 100 mM bistrispropane pH 6.0, 100 mM bistrispropane pH 6.5, 100 mM bistrispropane pH 7.0, 100 mM bistrispropane pH 7.5, 100 mM bistrispropane pH 8.0).

| PK rat iv T½ [1] [h] | PK rat sc T½ [1] [h] | PK mini pig iv T½ [2] [h] | Solubility ([3]; pH 3.0) | Solubility ([3]; pH 4.0) | Solubility ([3]; pH 5.0) | Solubility ([3]; pH 6.0) | Solubility ([3]; pH 6.5) | Solubility ([3]; pH 7.0) | Solubility ([3]; pH 7.5) | Solubility ([3]; pH 8.0) | SMILES |
| --- | --- | --- | --- | --- | --- | --- | --- | --- | --- | --- | --- |
| 3 | 3 | 2 | ≧200 μM | ≧200 μM | ≧200 μM | ≧200 μM | ≧200 μM | ≧200 μM | ≧200 μM | ≧200 μM | CC(C)C[C@H](NC(=O)[C@H](C)NC(=O)[C@H](C)NC(=O)[C@@H](NC(=O)[C@H](CO)NC(=O)[C@H](CC(C)C)NC(=O)[C@H](CCC(=O)O)NC(=O)[C@H](CO)NC(=O)[C@H](C)NC(=O)[C@H](CCC(=O)O)NC(=O)CCCCCCCCCCCCC(=O)O)[C@@H](C)O)C(=O)NCC(=O)N[C@@H](CCCNC(=N)N)C(=O)N[C@@H](CC(C)C)C(=O)N[C@@H](CO)C(=O)N[C@@H](C)C(=O)N[C@@H](CCC(=O)O)C(=O)N[C@@H](CC(C)C)C(=O)N[C@@H](Cc1cnc[nH]1)C(=O)N[C@@H](CCC(=O)O)C(=O)N[C@@H](CC(C)C)C(=O)N[C@@H](C)C(=O)N[C@H](C(=O)N[C@@H](CC(C)C)C(=O)N1CCC[C@H]1C(=O)N[C@@H](CCCNC(=N)N)C(=O)N[C@H](C(=O)N[C@@H](CCC(=O)O)C(=O)N[C@H](C(=O)NCC(=O)N1CCC[C@H]1C(=O)N[C@@H](CCC(=O)O)C(=O)N[C@@H](CO)C(=O)N1CCC[C@H]1C(N)=O)[C@@H](C)O)[C@@H](C)O)[C@@H](C)O [Ex. #4, [N-terminal(C14 diacid)]mimylin] ({C14 diacid}-EASELSTAALGRLSAELHELATLPRTETGPESP-NH2) |
| 3 | 3 | 17 | ≧200 μM | ≧200 μM | ≧200 μM | ≧200 μM | ≧200 μM | ≧200 μM | ≧200 μM | ≧200 μM | CC(C)C[C@H](NC(=O)[C@H](C)NC(=O)[C@H](C)NC(=O)[C@@H](NC(=O)[C@H](CO)NC(=O)[C@H](CC(C)C)NC(=O)[C@H](CCC(=O)O)NC(=O)[C@H](CO)NC(=O)[C@H](C)NC(=O)[C@H](CCC(=O)O)NC(=O)CCCCCCCCCCCCCCC(=O)O)[C@@H](C)O)C(=O)NCC(=O)N[C@@H](CCCNC(=N)N)C(=O)N[C@@H](CC(C)C)C(=O)N[C@@H](CO)C(=O)N[C@@H](C)C(=O)N[C@@H](CCC(=O)O)C(=O)N[C@@H](CC(C)C)C(=O)N[C@@H](Cc1cnc[nH]1)C(=O)N[C@@H](CCC(=O)O)C(=O)N[C@@H](CC(C)C)C(=O)N[C@@H](C)C(=O)N[C@H](C(=O)N[C@@H](CC(C)C)C(=O)N1CCC[C@H]1C(=O)N[C@@H](CCCNC(=N)N)C(=O)N[C@H](C(=O)N[C@@H](CCC(=O)O)C(=O)N[C@H](C(=O)NCC(=O)N1CCC[C@H]1C(=O)N[C@@H](CCC(=O)O)C(=O)N[C@@H](CO)C(=O)N1CCC[C@H]1C(N)=O)[C@@H](C)O)[C@@H](C)O)[C@@H](C)O [compound 3, [N-terminal(C16 diacid)]mimylin] ({C16 diacid}-EASELSTAALGRLSAELHELATLPRTETGPESP-NH2) |
